Reference: patent US12507703B2, “Methods, devices and compositions for preserving human milk” (The Trustees of Princeton University, priority 2023, dated 2025)
Where “and” joins values, the source holds several entries; their conditions need not be identical. Equal values may be shown once.

System: lipase
Assay: Lipase/lipolysis assay (EnzChek Lipase Substrate, quenched BODIPY-fatty acid conjugate) on stored human milk; further: test concentration or dose not given here

SMILES | Lipase (RFU)
CC(C)=CCC[C@](C)(O[C@@H]1O[C@H](CO[C@@H]2O[C@H](CO)[C@@H](O)[C@H](O)[C@H]2O)[C@@H](O)[C@H](O)[C@H]1O)[C@H]1CC[C@]2(C)[C@@H]1[C@H](O)C[C@@H]1[C@@]3(C)CC[C@H](O[C@@H]4O[C@H](CO)[C@@H](O)[C@H](O)[C@H]4O[C@@H]4O[C@H](CO)[C@@H](O)[C@H](O)[C@H]4O[C@@H]4OC[C@@H](O)[C@H](O)[C@H]4O)C(C)(C)[C@@H]3CC[C@]12C [Notoginsenoside Fa] | 1075.493 RFU
CC(C)=CCC[C@](C)(O[C@@H]1O[C@H](CO[C@@H]2OC[C@@H](O)[C@H](O)[C@H]2O)[C@@H](O)[C@H](O)[C@H]1O)[C@H]1CC[C@]2(C)[C@@H]1[C@H](O)C[C@@H]1[C@@]3(C)CC[C@H](O[C@@H]4O[C@H](CO)[C@@H](O)[C@H](O)[C@H]4O[C@@H]4O[C@H](CO)[C@@H](O)[C@H](O)[C@H]4O[C@@H]4OC[C@@H](O)[C@H](O)[C@H]4O)C(C)(C)[C@@H]3CC[C@]12C [Notoginsenoside Fc] | 1131.911 RFU
CC(C)=CCC[C@](C)(O[C@@H]1O[C@H](CO)[C@@H](O)[C@H](O)[C@H]1O)[C@H]1CC[C@]2(C)[C@@H]1[C@H](O)C[C@@H]1[C@@]3(C)CC[C@H](O)C(C)(C)[C@@H]3[C@@H](O[C@@H]3O[C@H](CO)[C@@H](O)[C@H](O)[C@H]3O[C@@H]3OC[C@@H](O)[C@H](O)[C@H]3O)C[C@]12C [Notoginsenoside R1] | 899.6021 RFU
CC(C)=CCC[C@](C)(O)[C@H]1CC[C@]2(C)[C@@H]1[C@H](O)C[C@@H]1[C@@]3(C)CC[C@H](O)C(C)(C)[C@@H]3[C@@H](O[C@@H]3O[C@H](CO)[C@@H](O)[C@H](O)[C@H]3O[C@@H]3OC[C@@H](O)[C@H](O)[C@H]3O)C[C@]12C [Notoginsenoside R2] | 955.4855 RFU
Cn1cc(C(N)=O)ccc1=O [Nudifloramide] | 993.1021 RFU
C[N+](C)(C)CCCC[C@H](N)C(=O)O [Nε,Nε,Nε-Trimethyllysine (chloride)] | 1143.924 RFU
CC(C(=O)c1ccc(O)cc1O)c1ccc(O)cc1 (stereo not shown) [O-Desmethylangolensin] | 864.3847 RFU
NCCOP(=O)(O)O [O-Phosphoryl-Ethanolamine] | 1247.866 RFU
CC(CCC1(O)OC2CC3C4CCC5CC(OC6OC(CO)C(O)C(O)C6OC6OC(CO)C(O)C(O)C6O)CCC5(C)C4CCC3(C)C2C1C)COC1OC(CO)C(O)C(O)C1O (stereo not shown) [Officinalisinin I] | 937.9671 RFU
CCCCCCCC/C=C\CCCCCCCC(=O)O[C@H](CC(=O)[O-])C[N+](C)(C)C [Oleoylcarnitine] | 870.8673 RFU
O=c1cc(-c2ccc(O)c(O)c2)oc2c([C@@H]3O[C@H](CO)[C@@H](O)[C@H](O)[C@H]3O)c(O)cc(O)c12 [Orientin] | 715.9231 RFU
CCCCCCCCCCC[C@@H](C[C@@H]1OC(=O)[C@H]1CCCCCC)OC(=O)[C@H](CC(C)C)NC=O [Orlistat, reference compound] | 234.506 RFU
CC(C)=CCc1c(O)ccc2ccc(=O)oc12 [Osthenol] | 798.6222 RFU
C[C@@H]1O[C@@H](O[C@H]2C[C@@H](O)[C@]3(CO)[C@H]4[C@H](O)C[C@]5(C)[C@@H](C6=CC(=O)OC6)CC[C@]5(O)[C@@H]4CC[C@]3(O)C2)[C@H](O)[C@H](O)[C@H]1O.O.O.O.O.O.O.O.O [Ouabain (Octahydrate)] | 901.7077 RFU
O=C(O)CCCC(=O)C(=O)O [Oxoadipic acid] | 732.376 RFU
OC[C@H]1O[C@H](OC[C@H]2OC(O)(CO)[C@@H](O)[C@@H]2O)[C@H](O)[C@@H](O)[C@@H]1O (stereo partly shown) [Palatinose] | 803.211 RFU
O=c1c(O[C@@H]2O[C@H](CO)[C@H](O)[C@H](O)[C@H]2O[C@@H]2O[C@H](CO)[C@@H](O)[C@H](O)[C@H]2O)c(-c2ccc(O)cc2)oc2cc(O)cc(O)c12 [Panasenoside] | 1093.409 RFU
C=C(C)[C@@H](O)COc1c2ccoc2cc2oc(=O)ccc12 [Pangelin] | 581.7367 RFU
CCCCCCCC(=O)CCc1ccc(O)c(OC)c1 [Paradol] | 1060.26 RFU and 1109.933 RFU
